# Test results: patent publication US11649222B2, “Compounds” (UNIVERSITETET I OSLO, priority 2016, dated 2023)
# System: K. pneumoniae 50732159 (No MBL)
# Experiment: Microbroth dilution MIC of meropenem with/without inhibitor
# Type: cell-based
# Details: inhibitor 25 mg/L
# How it was run: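 Broth microdilution in MH broth with 2-fold compound/antibiotic dilution series. Inoculum from a 0.5 McFarland suspension diluted 1:100, final 3-7×10^5 CFU/ml confirmed by colony count. Strains pre-grown overnight at 37° C, ampicillin 100 mg/L plates for ESBL/carbapenemase producers.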
smiles,measurement,value
"CN(C[C@H](O)[C@@H](O)[C@H](O)[C@H](O)CO)C(=O)c1ccc(CN(Cc2ccccn2)Cc2ccccn2)nc1 [Example 26, 6-((bis(pyridin-2-ylmethyl)amino)methyl)-N-methyl-N-((2S,3R,4R,5R)-2,3,4,5,6-pentahydroxyhexyl)nicotinamide]",Meropenem activity in presence of inhibitor,32 mg/L
